Reference: PubChem BioAssay AID2060502 (Molecular Pharmacology Branch, DTP, NCI, 2025)
Where “and” joins values, the source holds several entries; their conditions need not be identical. Identical values can stand only once.

Test system: 885724-159-R-J1-PDC complex spheroid viability
Assay: Anticancer human tumor 885724-159-R-J1-PDC patient-derived pancreatic adenocarcinoma cell line growth inhibition [GQUAD]
Conditions: for viability, T/C: stronger effect = lower value
Excerpt: DNA G-quadruplex Stabilizer Agents in Combinations in Complex Spheroids
A high-throughput screen of multi-cell type tumor spheroids was designed to identify active combinations of DNA G-quadruplex stabilizer agents and targeted small molecules. Complex spheroids include a stromal component modeled by human endothelial cells (HUVEC) and fibroblasts modeled by human mesenchymal stem cells (MSCs). The concentration ranges selected for each drug and investigational agent were based upon clinically achievable concentrations if the clinical Cmax of the agent was known.
Compounds. The drugs and investigational agents: pidnarulex (CX-5461; NSC782164), APTO-253 (NSC789042), BRACO-19 (NSC847499), peposertib (NSC802822), ceralasertib (NSC780249), elimusertib (NSC800525), camonsertib (NSC841442), AZD-1390 (NSC803789), olaparib (NSC753686), talazoparib (NSC767125), ART-558 (NSC835418), sotorasib (NSC818433), MRTX-1133 (NSC836407), SN-38 (NSC673596), topotecan (NSC609699), etoposide (NSC141540), doxorubicin (NSC123127), gemcitabine (NSC613327), 5-fluorouracil (NSC19893), paclitaxel (NSC125973), vemurafenib (NSC761431), panobinostat (NSC761190), R-306465 (JNJ-16241199; NSC773264), adavosertib (NSC754352), TP-3654 (NSC805149), carboplatin (NSC241240), KSQ-4279 (NSC840948), and staurosporine (NSC755774) were obtained from the National Cancer Institute (NCI) Developmental Therapeutics Program Chemical Repository (34). The FDA-approved anticancer drug set is available from the NCI Developmental Therapeutics Program. […] The stock solutions were prepared in dimethyl sulfoxide (DMSO, Sigma-Aldrich, St. Louis, MO, cat. D2650) at 800-fold the tested concentration and stored at -70 degrees C prior to their use. All drugs and investigational agents were tested over a range starting from a high concentration at or near the clinical Cmax and decreasing in half-log increments. If the clinical Cmax for an agent had not been determined, the highest concentration tested was 10 microM.
2.3 Cell Culture. All cells were maintained in an incubator at 37 degrees C and 5% CO2 with 95% humidity. The PDC lines were cultured according to standard operating procedures established by the NCI PDMR. All PDCs were thawed and cultured in Matrigel-coated flasks prepared with a working solution of 1X Ham's F-12 nutrient mix, without supplementation (Invitrogen, cat. 11765054), 100 U/mL penicillin-streptomycin (Invitrogen, cat. 15140122), and 2.5% Matrigel (Corning Inc., cat. 354248) for the first three passages. The 857933-349-R-J2-PDC line was cultured in 6C/Colon 1B media, which includes advanced DMEM/F-12 (Thermo Fisher Scientific, cat. 12634028), 10 mM HEPES (Thermo Fisher Scientific, cat. 15630080), 1X GlutaMAX supplement (Thermo Fisher Scientific, cat. 35050061), 0.1 mg/mL primocin (InvivoGen, cat. ant-pm-2), 10% defined fetal bovine serum, heat inactivated (HyClone Laboratories Inc., cat. SH30070.03HI), 50% L-WRN conditioned media (ATCC, cat. CRL-3276), 1.25 mM N-Acetyl-L-cysteine (Sigma-Aldrich, cat. A9165), 10 mM nicotinamide (Sigma-Aldrich, cat. N0636), 1X B-27 supplement (Thermo Fisher Scientific, cat. 17504044), 1X N-2 supplement (Thermo Fisher Scientific, cat. 17502048), 10 microM Y-27632 dihydrochloride (Tocris Bioscience, cat. 1254), and 50 ng/mL human EGF recombinant protein (Thermo Fisher Scientific, cat. PHG0311). The 485176-168-R4-J1-PDC line was cultured in Panc media, which includes all 6C/Colon 1B media components plus 100 ng/mL human FGF-10 (Thermo Fisher Scientific, cat. 100-26), 500 nM SB-431542 (Selleckchem, cat. S1067), and gastrin (Tocris, cat. 3006).
[…]

[1] = curve of first compound, second compound 0.0316 µM
[2] = curve of first compound, second compound 0.1 µM
[3] = curve of first compound, second compound 0.316 µM
[4] = curve of first compound, second compound 1 µM
[5] = curve of first compound, second compound 3.16 µM
[6] = curve of first compound, second compound 10 µM
[7] = second compound 0.0316 µM, first compound 0.0316 µM
[8] = second compound 0.0316 µM, first compound 0.316 µM
[9] = second compound 0.1 µM, first compound 0.0316 µM
[10] = second compound 0.1 µM, first compound 0.316 µM
[11] = second compound 0.316 µM, first compound 0.0316 µM
[12] = second compound 0.316 µM, first compound 0.316 µM
[13] = second compound 1 µM, first compound 0.0316 µM
[14] = second compound 1 µM, first compound 0.316 µM
[15] = second compound 3.16 µM, first compound 0.0316 µM
[16] = second compound 3.16 µM, first compound 0.316 µM
[17] = second compound 10 µM, first compound 0.0316 µM
[18] = second compound 10 µM, first compound 0.316 µM
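Note: spheroids exposed to agents for seven days before readout.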
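Throughout, for viability, T/C: percent of vehicle control viability where 100% = DMSO wells.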

`O=C(c1cc(Cc2n[nH]c(=O)c3ccccc23)ccc1F)N1CCN(C(=O)C2CC2)CC1` was tested, and the viability, T/C (compound 0.0316 µM) was 99.2% and 89.1% and 108%, the viability, T/C (compound 0.1 µM) was 101% and 98.7% and 92.9% and the viability, T/C (compound 0.316 µM) was 95.6% and 92.5% and 106%. For the same molecule, the viability, T/C (compound 1 µM) was 87% and 108% and 83.3%, the viability, T/C (compound 3.16 µM) was 90.5% and 89.9% and 99.1% and the viability, T/C (compound 10 µM) was 97.6% and 90.9% and 82.7%. The IC50 (curve of compound) was > 10000 nM.
For `COc1cc(C2c3cc4c(cc3C(OC3OC5COC(C)OC5C(O)C3O)C3COC(=O)C23)OCO4)cc(OC)c1O` (stereo unspecified) + Cc1cnc(CNC(=O)c2c(=O)c3ccc(N4CCCN(C)CC4)nc3n3c2sc2ccccc23)cn1, the IC50 [1] was > 10000 nM, the IC50 [2] was > 10000 nM and the IC50 [3] was > 10000 nM. For the same molecule, the IC50 [4] was > 10000 nM, the IC50 [5] was > 10000 nM and the IC50 [6] was > 10000 nM. The viability, T/C [7] was 113%, the viability, T/C (second compound 0.0316 µM, first compound 0.1 µM) was 98.3% and the viability, T/C [8] was 101%. For the same molecule, the viability, T/C (second compound 0.0316 µM, first compound 1 µM) was 91.5%, the viability, T/C (second compound 0.0316 µM, first compound 3.16 µM) was 84.5% and the viability, T/C (second compound 0.0316 µM, first compound 10 µM) was 82.4%. For the same molecule, the viability, T/C [9] was 116%, the viability, T/C (second compound 0.1 µM, first compound 0.1 µM) was 107% and the viability, T/C [10] was 90.2%. The viability, T/C (second compound 0.1 µM, first compound 1 µM) was 100%, the viability, T/C (second compound 0.1 µM, first compound 3.16 µM) was 95.2% and the viability, T/C (second compound 0.1 µM, first compound 10 µM) was 81.9%. For the same molecule, the viability, T/C [11] was 108%, the viability, T/C (second compound 0.316 µM, first compound 0.1 µM) was 105% and the viability, T/C [12] was 102%. It also gave a viability, T/C (second compound 0.316 µM, first compound 1 µM) of 91.1%, a viability, T/C (second compound 0.316 µM, first compound 3.16 µM) of 84.8% and a viability, T/C (second compound 0.316 µM, first compound 10 µM) of 79.3%. The viability, T/C [13] was 105%, the viability, T/C (second compound 1 µM, first compound 0.1 µM) was 87.2% and the viability, T/C [14] was 97.8%. For the same molecule, the viability, T/C (second compound 1 µM, first compound 1 µM) was 89.6%, the viability, T/C (second compound 1 µM, first compound 3.16 µM) was 84.8% and the viability, T/C (second compound 1 µM, first compound 10 µM) was 76.1%. It also gave a viability, T/C [15] of 79.8%, a viability, T/C (second compound 3.16 µM, first compound 0.1 µM) of 81.4% and a viability, T/C [16] of 87.6%. For the same molecule, the viability, T/C (second compound 3.16 µM, first compound 1 µM) was 84.2%, the viability, T/C (second compound 3.16 µM, first compound 3.16 µM) was 83.5% and the viability, T/C (second compound 3.16 µM, first compound 10 µM) was 71.1%. The viability, T/C [17] was 81.7%, the viability, T/C (second compound 10 µM, first compound 0.1 µM) was 79.5% and the viability, T/C [18] was 76.7%. It also gave a viability, T/C (second compound 10 µM, first compound 1 µM) of 82.4%, a viability, T/C (second compound 10 µM, first compound 3.16 µM) of 78.3% and a viability, T/C (second compound 10 µM, first compound 10 µM) of 70.7%.
`CCc1c2c(nc3ccc(O)cc13)-c1cc3c(c(=O)n1C2)COC(=O)[C@]3(O)CC` + Cc1[nH]c2ccc(F)cc2c1-c1nc2c3cccnc3c3ncccc3c2[nH]1 showed an IC50 [1] of 114 nM, an IC50 [2] of 110 nM and an IC50 [3] of 121 nM. For the same molecule, the IC50 [4] was 125 nM, the IC50 [5] was < 0.999 nM and the IC50 [6] was 62.4 nM. For the same molecule, the viability, T/C (second compound 0.0316 µM, first compound 0.000999 µM) was 96.4%, the viability, T/C (second compound 0.0316 µM, first compound 0.00316 µM) was 83.6% and the viability, T/C (second compound 0.0316 µM, first compound 0.00999 µM) was 83.2%. For the same molecule, the viability, T/C [7] was 73.9%, the viability, T/C (second compound 0.0316 µM, first compound 0.0999 µM) was 55.5% and the viability, T/C [8] was 18.4%. The viability, T/C (second compound 0.1 µM, first compound 0.000999 µM) was 104%, the viability, T/C (second compound 0.1 µM, first compound 0.00316 µM) was 90.5% and the viability, T/C (second compound 0.1 µM, first compound 0.00999 µM) was 76.8%. The viability, T/C [9] was 70.4%, the viability, T/C (second compound 0.1 µM, first compound 0.0999 µM) was 60.9% and the viability, T/C [10] was 21.3%. It also gave a viability, T/C (second compound 0.316 µM, first compound 0.000999 µM) of 85.8%, a viability, T/C (second compound 0.316 µM, first compound 0.00316 µM) of 86% and a viability, T/C (second compound 0.316 µM, first compound 0.00999 µM) of 73.3%. The viability, T/C [11] was 69.5%, the viability, T/C (second compound 0.316 µM, first compound 0.0999 µM) was 59.8% and the viability, T/C [12] was 21.5%. For the same molecule, the viability, T/C (second compound 1 µM, first compound 0.000999 µM) was 78%, the viability, T/C (second compound 1 µM, first compound 0.00316 µM) was 61.1% and the viability, T/C (second compound 1 µM, first compound 0.00999 µM) was 57.6%. For the same molecule, the viability, T/C [13] was 60.6%, the viability, T/C (second compound 1 µM, first compound 0.0999 µM) was 58.7% and the viability, T/C [14] was 18.9%. It also gave a viability, T/C (second compound 3.16 µM, first compound 0.000999 µM) of 43%, a viability, T/C (second compound 3.16 µM, first compound 0.00316 µM) of 28.7% and a viability, T/C (second compound 3.16 µM, first compound 0.00999 µM) of 28.4%. The viability, T/C [15] was 21.3%, the viability, T/C (second compound 3.16 µM, first compound 0.0999 µM) was 14.1% and the viability, T/C [16] was 7.27%. It also gave a viability, T/C (second compound 10 µM, first compound 0.000999 µM) of 63%, a viability, T/C (second compound 10 µM, first compound 0.00316 µM) of 58.8% and a viability, T/C (second compound 10 µM, first compound 0.00999 µM) of 46.8%. The viability, T/C [17] was 60.3%, the viability, T/C (second compound 10 µM, first compound 0.0999 µM) was 45.5% and the viability, T/C [18] was 21.4%.
